Results taken from US20100087424A1, “TRICYCLIC NITROGEN CONTAINING HETEROCYCLES AS ANTIBACTERIAL AGENTS” (Glaxo Group Limited, priority 2007, published 2010).
Structures can show the parent of a compound that is named as a salt.

test system: Mycobacterium tuberculosis H37Rv; test: Mycobacterium tuberculosis H37Rv Inhibition Assay (resazurin fluorescence); type: cell-based; details: ATCC 25618 / H37Rv, read-out: MIC value, H37Rv strain (ATCC25618), Middlebrook 7H9+ADC, six days at 37° C., resazurin read after 48 hours

Structure (SMILES)	MIC
O=c1ccc2ccc(F)c3c2n1[C@H](CN1CC[C@H](NCc2cc4c(cn2)OCCO4)[C@H](O)C1)CO3 [Example 20, (3R)-3-({(3R,4S)-4-[(2,3-Dihydro[1,4]dioxino[2,3-c]pyridin-7-ylmethyl)amino]-3-hydroxy-1-piperidinyl}methyl)-10-fluoro-2,3-dihydro-5H-[1,4]oxazino[2,3,4-ij]quinolin-5-one dihydrochloride]	≤ 2.8 µg/mL
O=c1ccc2ncc(F)c3c2n1[C@H](CN1CC[C@H](NCc2cc4c(cn2)OCCO4)[C@H](O)C1)CC3 [Example 30, 6-({(3R,4S)-4-[(2,3-dihydro[1,4]dioxino[2,3-c]pyridin-7-ylmethyl)amino]-3-hydroxy-1-piperidinyl}methyl)-3-fluoro-5,6-dihydro-4H,8H-pyrido[3,2,1-de]-1,5-naphthyridin-8-one dihydrochloride]	≤ 2.8 µg/mL
O=C(O)c1ccccc1.O=c1ccc2ncc(F)c3c2n1[C@H](CN1CCC(NCc2cc4c(nn2)OCCS4)CC1)CO3 [Example 48, (6R)-6-({4-[(6,7-dihydro[1,4]oxathiino[2,3-c]pyridazin-3-ylmethyl)amino]-1-piperidinyl}methyl)-3-fluoro-5,6-dihydro-8H-[1,4]oxazino[2,3,4-de]-1,5-naphthyridin-8-one benzoate]	≤ 2.8 µg/mL
